US6835742B2, “Synergistic effect of amlodipine and atorvastatin on cholesterol crystal formation inhibition and aortic endothelial cell nitric oxide release” (priority 2000, dated 2004)

Assays:
[1] = test system: rabbit aorta endothelial cell; experiment: NO release from a single rabbit aorta endothelial cell (porphyrinic sensor); type: cell-based; conditions: after injection of atorvastatin; 37° C.
Description: NO release measurements. All measurements presented were recorded in vitro. NO release was measured directly from a single endothelial cell in the rabbit aorta. Measurements were done in Hank's balance solution at 37° C. […] The sensor operated with a three-electrode system [sensor working electrode, platinum wire (0.1 mm) counter electrode, and saturated calomel electrode (SCE—reference electrode)]. The three electrodes were connected to a potentiostat/galvanostat PAR273. Data were acquired with the use of an IBM computer with custom software. […] SCE. The release of NO was initiated by the injection of potential agonists of endothelial NO synthase (eNOS) using a temtoinjector placed in the controlled distance from the endothelial cell. Two different agonists were tested: amlodipine and atorvastatin. The different concentrations of these two compounds applied simultaneously were also tested.

stable and advanced CAD = conditions: compared to angioplasty with usual medical care; cited from earlier work
[2] = Small angle x-ray diffraction of cholesterol-enriched reconstituted membranes (cholesterol domain formation); type: physicochemical; conditions: for d-space of surrounding sterol-poor membrane region: 5° C., 74% relative humidity
coronary artery disease = conditions: cited from earlier work
[3] = 1.1:1 cholesterol to phospholipid mole ratio, 5° C. (FIG. 5)
[4] = 1.2:1 cholesterol to phospholipid mole ratio, 5° C. (FIG. 4)
[5] = 1.2:1 cholesterol to phospholipid mole ratio

Row | d-space of surrounding sterol-poor membrane region ([2]; 1.1:1 cholesterol to phospholipid mole ratio) | d-space of surrounding sterol-poor membrane region [2, 5] | Compound | maximum NO concentration released [1] | reduction of overall incidence of cardiovascular events (stable and advanced CAD) | time to a first ischemic event (stable and advanced CAD) | effect on cholesterol domain formation [2, 3] | effect on cholesterol domain formation [2, 4] | width of cholesterol monohydrate crystalline domains ([2]; samples containing verapamil, unaffected by temperature (93% relative humidity) or relative humidity (20° C.)) | progression of carotid atherosclerosis (coronary artery disease; B-mode ultrasonographic assessments) | reduction in documented angina (coronary artery disease; compared to placebo) | reduction in the need for revascularization (coronary artery disease; compared to placebo)
1 | 55.8 Å | 56.8 Å | CC(C)c1c(C(=O)Nc2ccccc2)c(-c2ccccc2)c(-c2ccc(F)cc2)n1CC[C@@H](O)C[C@@H](O)CC(=O)[O-].CC(C)c1c(C(=O)Nc2ccccc2)c(-c2ccccc2)c(-c2ccc(F)cc2)n1CC[C@@H](O)C[C@@H](O)CC(=O)[O-].[Ca+2] [AT, atorvastatin calcium] | 20 ± 5 nmol/L | 36% | significantly delayed | no effect on domain formation | did not interfere with domain formation | – | – | – | –
2 | – | – | COc1ccc(CCN(C)CCCC(C#N)(c2ccc(OC)c(OC)c2)C(C)C)cc1OC (centres unmarked) [verapamil] | – | – | – | – | – | 34.0 Å | – | – | –
3 | – | 57.8 Å | CCOC(=O)C1=C(COCCN)NC(C)=C(C(=O)OC)C1c1ccccc1Cl (centres unmarked) [AML, Amlodipine besylate] | – | – | – | no effect on domain formation | did not interfere with domain formation | – | significant slowing | 33% | 42%
